# From publication PMC12661400, “Oral bioavailable ITRI-148 degrades androgen receptor variants and overcomes antiandrogen resistance in advanced prostate cancer” (Neoplasia (New York, N.Y.), 2025)
# Where “and” joins values, the source holds several entries; their conditions need not be identical. Equal entries are not always repeated. Where two headings read alike, the source gives them in different places.
# What was measured:
# AR = AR degradation by immunoblotting in CRPC cells; type: cell-based
# Experimental: Cell lysis, Western blotting, and AR ubiquitination were performed as described in [17]. Primary antibodies: AR (Millipore 06-680), AR-V7 (RevMAb Biosciences 31-1109-00), PSA (ABclonal A4355), NKX3-1 (Cell Signaling Technology 92998), GAPDH (Cell Signaling Technology 2118) and β-Actin (Sigma-Aldrich A5441).
# Fig. 1 ITRI-148 induces degradation of both AR and AR-V7 proteins in CRPC cells. […] (B) Expression of Flag-tagged AR-V7 in 293T cells following ITRI-148 treatment. Cells transiently expressing Flag-AR-V7 were pretreated with 50 μg/mL cycloheximide for 1 hour, then exposed to ITRI-148 at the indicated concentrations for 8 hours. AR-V7 expression was detected using an anti-Flag antibody. (C) Representative immunoblots showing AR protein levels in VCaP and CWR22Rv1 cells after 48 hours of ITRI-148 treatment. An N-terminal AR antibody was used to detect both full-length AR and LBD-truncated variants (AR-V(ΔLBD)) in CWR22Rv1 cells, while AR-V7 was detected using an AR-V7-specific antibody. DC₅₀ values were calculated from normalized band intensities, and Dₘₐₓ represents the maximal degradation achieved at 10 μM ITRI-148. (D) Immunofluorescence staining of AR after 24 or 48 hours of ITRI-148 treatment, detected using an N-terminal AR antibody. […] (F) Western blot analysis of ectopically expressed wild-type (WT) and mutant Myc-tagged AR in DU145 cells following 24 hours of treatment with 10 μM ITRI-148. Quantified AR levels are as indicated. TEXT PRINTED IN THE PICTURE: (C) ITRI-148: DC50 (μM) AR CWR22Rv1: 1.23 ± 1.86; DC50 (μM) AR VCaP: 0.05 ± 0.03; DC50 (μM) AR-V7 CWR22Rv1: 1.20 ± 0.92; DC50 (μM) AR-V7 VCaP: 0.02 ± 0.02; Dmax (%) AR CWR22Rv1: 65.02 ± 19.91; Dmax (%) AR VCaP: 80.49 ± 5.61; Dmax (%) AR-V7 CWR22Rv1: 72.10 ± 3.15; Dmax (%) AR-V7 VCaP: 91.36 ± 2.05
# [1] = In vitro stability in plasma; type: in vitro ADME, mouse; details: mice plasma
# Experimental: (§1) The stability of ITRI-148 was assessed in plasma across four species: humans, dogs, rats, and mice. ITRI-148 added to pre-warmed plasma at 1 μM was maintained at the designated temperature, and aliquots were collected at 0, 0.5, 1, 2, and 4 hours after incubation. At each time point, 20 μL of the samples was taken to terminate the reaction, followed by LC-MS/MS analysis to determine the remaining compound concentration. Data from duplicated experiments was calculated and presented as mean ± SD.
# [2] = Repeated-dose toxicity study: mortality, body weight, tolerability; type: in vivo
# Experimental: (§2) Repeated-dose toxicity and toxicokinetic studies
# (§3) Repeated-dose oral toxicity study and toxicokinetic (TK) profiling was conducted in Sprague-Dawley rats. ITRI-148 was administered once daily using oral gavage at doses of 100, 300, 600, and 1000 mg/kg/day for 7 consecutive days, followed by a 7-day recovery period. Each dose group comprised 3 animals designated for toxicokinetic (TK) analysis and 6 animals for dose-range finding (DRF) evaluation. Clinical observations, body weights, and food consumption were monitored daily throughout the dosing and recovery periods. […]
# All samples were analyzed in duplicate. Hematology and serum clinical chemistry analyses were performed on Day 7 (end of dosing) and Day 14 (end of recovery). At necropsy, organ weights (including heart, liver, kidney, spleen, thymus, and adrenal glands) were recorded, and gross pathological changes were examined. All procedures were conducted in compliance with institutional animal care and use guidelines. […]
# (§4) Targeting androgen receptor and the variants by an orally bioavailable
# (§5) Proteolysis Targeting Chimeras compound in castration resistant prostate cancer
# [3] = Pharmacokinetic analysis after oral dosing in mice; type: in vivo, BALB/c mice
# Experimental: Six to eight-week-old male BALB/c (BALB/cAnNCrlBltw) mice (22-30 g) were purchased from BioLASCO Taiwan Co., Ilan, Taiwan. In vivo PK analysis of ITRI-148 was performed with 10 mg/kg for oral (PO, n = 3) dosing route. Blood samples from the mice were collected using Microvette® CB 300 EDTA blood collection tubes by a lancet at 0.167 h (IV only), 0.5, 1, 2, 4, 7 and 24 h time points. The plasma was then subjected to LC-MS analysis to quantitate the drug concentration using calibration curves that were established with drug standards prepared in mice plasma.
# [4] = In vitro stability in plasma; type: in vitro ADME; details: for Remaining of intact drug (%): 1 μM, incubation up to 4 hours; for half-life at 1 μM: read-out: Plasma Stability t1/2
# Experimental: as §1
# [5] = Repeated-dose toxicity study: hematology; type: in vivo, Sprague-Dawley rats; details: rats
# Experimental: as §2, §3
# All samples were analyzed in duplicate. Hematology and serum clinical chemistry analyses were performed on Day 7 (end of dosing) and Day 14 (end of recovery). […]
# All procedures were conducted in compliance with institutional animal care and use guidelines. […]
# as §4, §5
# [6] = male, BALB/c, mouse, plasma, po, 10 mg/kg
# [7] = PO 100 mg/kg/day 7 days, Day 14 (recovery)
# [8] = PO 300 mg/kg/day 7 days, Day 14 (recovery)
# [9] = PO 600 mg/kg/day 7 days, Day 14 (recovery)
# [10] = PO 1000 mg/kg/day 7 days, Day 7
# [11] = PO 1000 mg/kg/day 7 days, Day 14 (recovery)
structure (smiles),measurement,setting,value
O=C1CCC(N2C(=O)c3cccc(NCC(=O)N4CCC(N5CCC(C#Cc6ccc(C7CCN(C8=Nn9c(nnc9C(F)(F)F)CC8)CC7)cc6)CC5)CC4)c3C2=O)C(=O)N1 (stereo not drawn) [ITRI-148],DC50,"AR; CWR22Rv1, 48 hours, read-out: DC50 AR",1230 ± 1860 nM
same,Dmax AR,"AR; CWR22Rv1, maximal degradation at 10 μM",65.02 ± 19.91%
same,DC50,"AR; VCaP cells, read-out: half-maximal degradation concentration (DC50) for AR",~50 nM
same,DC50,"AR; VCaP, 48 hours, read-out: DC50 AR",50 ± 30 nM
same,Dmax AR,"AR; VCaP, maximal degradation at 10 μM",80.49 ± 5.61% and 80%
same,Remaining of intact drug (%),"[1]; 1 μM, incubation up to 4 hours",80.2 ± 0.3%
same,half-life at 1 μM,"[1]; mouse, read-out: Plasma Stability t1/2",> 4 h
same,margin of maximum rat dose (1000 mg/kg) over the efficacious dose used in xenograft model,"[2]; rat, in vivo",> 10 fold
same,body weight loss,"[2]; rats, PO 100-1000 mg/kg/day, any treatment group",No animal exhibited >10% weight loss in any treatment group
same,AUC/Dose,"[3]; PO, 10 mg/kg, 0-24 h per dosing",990.1 h⋅kg⋅ng/mL/mg
same,BA,"[3]; PO, 10 mg/kg, bioavailability",27.1 ± 0.5%
same,"PK (PO, 10 mg/kg) BA","[3]; PO, bioavailability",27.1%
same,AUC,[3]; [6],9900 ng·h/mL
same,Cmax,[3]; [6],733 ± 45 ng/mL
same,Tmax,[3]; [6],4 h
same,AUC(0-t),"[3]; male, BALB/c, mouse, plasma, PO, 10 mg/kg, between 0 and 24 h",9900 ng·h/mL
same,Remaining of intact drug (%),[4]; dog plasma,79.4 ± 0.6%
same,half-life at 1 μM,[4]; dog plasma,> 4 h
same,Remaining of intact drug (%),[4]; human plasma,86.9 ± 5.2%
same,half-life at 1 μM,[4]; human plasma,> 4 h
same,Remaining of intact drug (%),[4]; rat plasma,62.1 ± 5.8%
same,half-life at 1 μM,[4]; rat plasma,> 4 h
same,HGB,"[5]; PO 100 mg/kg/day 7 days, Day 7",20.3 ± 0.2 g/dL
same,PLT,"[5]; PO 100 mg/kg/day 7 days, Day 7",915 ± 368 x103 cells/µL
same,RBC,"[5]; PO 100 mg/kg/day 7 days, Day 7",7.51 ± 0.13 x106 cells/µL
same,WBC,"[5]; PO 100 mg/kg/day 7 days, Day 7",8.72 ± 2.37 x103 cells/µL
same,HGB,[5]; [7],21.9 ± 3.2 g/dL
same,PLT,[5]; [7],1049 ± 231 x103 cells/µL
same,RBC,[5]; [7],8.18 ± 1.17 x106 cells/µL
same,WBC,[5]; [7],7.52 ± 5.51 x103 cells/µL
same,HGB,"[5]; PO 300 mg/kg/day 7 days, Day 7",20 ± 1.4 g/dL
same,PLT,"[5]; PO 300 mg/kg/day 7 days, Day 7",956 ± 108 x103 cells/µL
same,RBC,"[5]; PO 300 mg/kg/day 7 days, Day 7",7.15 ± 0.4 x106 cells/µL
same,WBC,"[5]; PO 300 mg/kg/day 7 days, Day 7",8.19 ± 2.89 x103 cells/µL
same,HGB,[5]; [8],24.1 ± 0.4 g/dL
same,PLT,[5]; [8],1128 ± 236 x103 cells/µL
same,RBC,[5]; [8],8.91 ± 0.17 x106 cells/µL
same,WBC,[5]; [8],9.56 ± 1.57 x103 cells/µL
same,HGB,"[5]; PO 600 mg/kg/day 7 days, Day 7",20.6 ± 1.9 g/dL
same,PLT,"[5]; PO 600 mg/kg/day 7 days, Day 7",986 ± 252 x103 cells/µL
same,RBC,"[5]; PO 600 mg/kg/day 7 days, Day 7",7.51 ± 0.53 x106 cells/µL
same,WBC,"[5]; PO 600 mg/kg/day 7 days, Day 7",8.68 ± 4.58 x103 cells/µL
same,HGB,[5]; [9],21.6 ± 0.8 g/dL
same,PLT,[5]; [9],1022 ± 446 x103 cells/µL
same,RBC,[5]; [9],7.87 ± 0.45 x106 cells/µL
same,WBC,[5]; [9],5.27 ± 2.39 x103 cells/µL
same,HGB,[5]; [10],20.7 ± 1.3 g/dL
same,PLT,[5]; [10],892 ± 66 x103 cells/µL
same,RBC,[5]; [10],7.52 ± 0.31 x106 cells/µL
same,WBC,[5]; [10],7.48 ± 2.72 x103 cells/µL
same,HGB,[5]; [11],21.6 ± 1 g/dL
same,PLT,[5]; [11],1140 ± 222 x103 cells/µL
same,RBC,[5]; [11],8.33 ± 0.35 x106 cells/µL
same,WBC,[5]; [11],8.28 ± 0.31 x103 cells/µL
